{
  "source": "ChEMBL document CHEMBL1201862",
  "about": "“PubChem BioAssay data set” (2004)",
  "key": {"Vero": {"test_system": "Vero", "assay": "Vero cell toxicity, dose response, cytotoxicity control, plate reader, cherry-pick samples (AID 687020)", "type": "functional, cell-based", "conditions": "Chlorocebus sabaeus"}, "[1]": {"target": "T1, Carboxy-terminal domain RNA polymerase II polypeptide A small phosphatase 1 (Homo sapiens, UniProt Q9GZU7)", "T1 sequence (Q9GZU7 whole entry)": "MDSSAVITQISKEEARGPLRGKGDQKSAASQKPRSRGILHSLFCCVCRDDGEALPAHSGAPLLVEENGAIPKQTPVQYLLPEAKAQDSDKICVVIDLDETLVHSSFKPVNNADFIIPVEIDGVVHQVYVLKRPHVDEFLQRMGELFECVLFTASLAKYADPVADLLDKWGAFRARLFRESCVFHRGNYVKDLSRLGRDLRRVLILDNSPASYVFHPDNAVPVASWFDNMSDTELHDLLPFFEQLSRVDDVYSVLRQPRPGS", "assay": "inhibitors of CTDSP1, concentration-response testing, biochemical assay, absorbance-based, actives from ultra-high-throughput screening (AID 540297)", "type": "functional"}, "[2]": {"target": "T2, Beta-2 adrenergic receptor (Homo sapiens, UniProt P07550)", "T2 sequence (P07550 whole entry)": "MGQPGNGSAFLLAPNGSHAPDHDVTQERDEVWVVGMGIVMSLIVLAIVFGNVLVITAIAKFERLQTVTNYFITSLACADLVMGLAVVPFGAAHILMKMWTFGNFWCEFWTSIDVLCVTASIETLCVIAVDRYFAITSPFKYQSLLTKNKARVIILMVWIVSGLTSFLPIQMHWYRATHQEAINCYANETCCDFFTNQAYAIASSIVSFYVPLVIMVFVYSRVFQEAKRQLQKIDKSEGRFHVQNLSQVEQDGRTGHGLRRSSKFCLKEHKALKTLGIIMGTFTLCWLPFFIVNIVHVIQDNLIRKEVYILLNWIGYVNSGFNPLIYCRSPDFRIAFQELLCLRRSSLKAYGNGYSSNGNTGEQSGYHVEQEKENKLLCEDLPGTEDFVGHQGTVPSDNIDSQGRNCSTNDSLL", "assay": "beta2AR agonists driving receptor internalization, dose response, cell-based, FAP fluorogen, flow cytometry, cherry pick 1 (AID 588763)", "type": "functional"}, "[3]": {"target": "T2, Beta-2 adrenergic receptor", "assay": "Dose response for HTS for Beta-2AR agonists via FAP method from Powderset1.", "type": "functional"}, "[4]": {"target": "T3, Tyrosine-protein phosphatase non-receptor type 5 (Homo sapiens, UniProt P54829)", "T3 sequence (P54829 whole entry)": "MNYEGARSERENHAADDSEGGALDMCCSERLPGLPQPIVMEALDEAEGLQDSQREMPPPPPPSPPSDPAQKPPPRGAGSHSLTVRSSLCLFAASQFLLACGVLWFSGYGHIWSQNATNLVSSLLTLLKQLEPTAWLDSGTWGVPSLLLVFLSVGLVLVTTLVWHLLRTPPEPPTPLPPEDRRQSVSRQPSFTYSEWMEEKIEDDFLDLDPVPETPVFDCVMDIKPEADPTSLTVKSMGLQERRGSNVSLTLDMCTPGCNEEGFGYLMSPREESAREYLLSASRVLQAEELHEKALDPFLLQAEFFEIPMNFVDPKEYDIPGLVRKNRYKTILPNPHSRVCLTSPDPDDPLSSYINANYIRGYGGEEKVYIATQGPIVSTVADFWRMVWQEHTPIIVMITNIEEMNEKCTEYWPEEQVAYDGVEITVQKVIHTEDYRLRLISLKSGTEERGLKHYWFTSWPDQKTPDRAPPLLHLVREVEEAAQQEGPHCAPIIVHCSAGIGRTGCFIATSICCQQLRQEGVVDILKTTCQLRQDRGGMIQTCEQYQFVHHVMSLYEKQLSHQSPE", "assay": "STEP phosphatase inhibitors, confirmation, biochemical, fluorescence intensity, uHTS hits (AID 602372)", "type": "functional", "conditions": "read-out: IC50_Mean"}, "[5]": {"target": "Arf-GAP with SH3 domain, ANK repeat and PH domain-containing protein 1 (Homo sapiens, UniProt Q9ULH1)", "sequence (Q9ULH1 whole entry, the tested form may be a part)": "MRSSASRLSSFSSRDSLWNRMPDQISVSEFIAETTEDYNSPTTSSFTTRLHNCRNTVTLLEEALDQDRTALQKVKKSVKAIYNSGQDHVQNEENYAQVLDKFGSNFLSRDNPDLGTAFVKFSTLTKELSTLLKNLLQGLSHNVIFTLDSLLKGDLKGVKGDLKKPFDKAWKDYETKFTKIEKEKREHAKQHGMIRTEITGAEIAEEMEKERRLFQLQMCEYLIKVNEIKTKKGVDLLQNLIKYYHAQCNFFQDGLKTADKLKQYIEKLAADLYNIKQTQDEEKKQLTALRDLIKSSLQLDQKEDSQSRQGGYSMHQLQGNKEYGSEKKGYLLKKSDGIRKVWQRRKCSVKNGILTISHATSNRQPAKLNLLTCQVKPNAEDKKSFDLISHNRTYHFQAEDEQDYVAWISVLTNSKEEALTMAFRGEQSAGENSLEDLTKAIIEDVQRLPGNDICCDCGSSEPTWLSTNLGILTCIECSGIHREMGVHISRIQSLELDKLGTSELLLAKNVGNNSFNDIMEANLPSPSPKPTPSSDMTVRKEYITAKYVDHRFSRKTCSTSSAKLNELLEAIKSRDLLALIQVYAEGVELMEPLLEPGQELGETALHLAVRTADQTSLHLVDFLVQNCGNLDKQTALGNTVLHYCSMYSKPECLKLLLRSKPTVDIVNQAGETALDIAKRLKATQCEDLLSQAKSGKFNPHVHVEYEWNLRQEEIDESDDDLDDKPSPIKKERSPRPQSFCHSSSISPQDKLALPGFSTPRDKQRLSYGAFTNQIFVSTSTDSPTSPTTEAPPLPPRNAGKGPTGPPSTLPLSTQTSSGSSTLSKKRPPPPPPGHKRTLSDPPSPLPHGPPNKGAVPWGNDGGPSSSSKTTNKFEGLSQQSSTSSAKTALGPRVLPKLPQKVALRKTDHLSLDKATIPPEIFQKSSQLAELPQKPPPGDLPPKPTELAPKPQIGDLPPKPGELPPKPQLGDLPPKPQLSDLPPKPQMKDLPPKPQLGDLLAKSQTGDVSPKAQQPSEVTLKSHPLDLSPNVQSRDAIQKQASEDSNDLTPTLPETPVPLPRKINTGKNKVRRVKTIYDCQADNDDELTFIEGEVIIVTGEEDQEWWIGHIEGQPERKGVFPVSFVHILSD", "type": "functional"}, "[6]": {"target": "Dual specificity protein phosphatase 3 (Homo sapiens, UniProt P51452)", "sequence (P51452 whole entry)": "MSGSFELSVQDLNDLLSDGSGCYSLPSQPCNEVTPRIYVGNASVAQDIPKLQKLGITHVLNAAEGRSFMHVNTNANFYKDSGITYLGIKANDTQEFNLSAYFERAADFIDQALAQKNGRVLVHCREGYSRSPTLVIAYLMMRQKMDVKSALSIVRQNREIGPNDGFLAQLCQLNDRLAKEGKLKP", "assay": "VHR phosphatase inhibition, dose response, selectivity assay for STEP inhibitor project, biochemical (AID 602374)", "type": "functional", "conditions": "read-out: IC50_Mean"}, "[7]": {"target": "T4, Tyrosine-protein phosphatase non-receptor type 11 (Homo sapiens, UniProt Q06124)", "T4 sequence (Q06124 whole entry)": "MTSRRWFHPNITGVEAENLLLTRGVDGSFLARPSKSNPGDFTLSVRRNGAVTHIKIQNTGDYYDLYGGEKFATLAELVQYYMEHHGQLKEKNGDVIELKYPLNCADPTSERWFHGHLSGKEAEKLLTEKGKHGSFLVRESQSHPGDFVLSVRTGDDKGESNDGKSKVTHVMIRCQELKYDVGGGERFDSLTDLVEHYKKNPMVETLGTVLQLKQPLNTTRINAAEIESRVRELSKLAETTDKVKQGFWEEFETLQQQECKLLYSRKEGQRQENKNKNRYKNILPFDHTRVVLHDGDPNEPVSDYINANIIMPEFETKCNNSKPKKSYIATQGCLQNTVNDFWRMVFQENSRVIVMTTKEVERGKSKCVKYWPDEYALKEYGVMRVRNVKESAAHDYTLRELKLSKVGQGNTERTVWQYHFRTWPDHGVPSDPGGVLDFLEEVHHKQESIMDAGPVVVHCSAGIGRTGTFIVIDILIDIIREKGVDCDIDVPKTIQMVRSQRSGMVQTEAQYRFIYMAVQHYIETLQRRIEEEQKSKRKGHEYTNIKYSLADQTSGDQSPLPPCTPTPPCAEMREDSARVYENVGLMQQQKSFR", "assay": "SHP2 phosphatase inhibition, dose response, selectivity assay for STEP inhibitor project, biochemical (AID 602367)", "type": "functional", "conditions": "read-out: IC50_Mean"}, "[8]": {"target": "Broad substrate specificity ATP-binding cassette transporter ABCG2 (Homo sapiens, UniProt Q9UNQ0)", "sequence (Q9UNQ0 whole entry)": "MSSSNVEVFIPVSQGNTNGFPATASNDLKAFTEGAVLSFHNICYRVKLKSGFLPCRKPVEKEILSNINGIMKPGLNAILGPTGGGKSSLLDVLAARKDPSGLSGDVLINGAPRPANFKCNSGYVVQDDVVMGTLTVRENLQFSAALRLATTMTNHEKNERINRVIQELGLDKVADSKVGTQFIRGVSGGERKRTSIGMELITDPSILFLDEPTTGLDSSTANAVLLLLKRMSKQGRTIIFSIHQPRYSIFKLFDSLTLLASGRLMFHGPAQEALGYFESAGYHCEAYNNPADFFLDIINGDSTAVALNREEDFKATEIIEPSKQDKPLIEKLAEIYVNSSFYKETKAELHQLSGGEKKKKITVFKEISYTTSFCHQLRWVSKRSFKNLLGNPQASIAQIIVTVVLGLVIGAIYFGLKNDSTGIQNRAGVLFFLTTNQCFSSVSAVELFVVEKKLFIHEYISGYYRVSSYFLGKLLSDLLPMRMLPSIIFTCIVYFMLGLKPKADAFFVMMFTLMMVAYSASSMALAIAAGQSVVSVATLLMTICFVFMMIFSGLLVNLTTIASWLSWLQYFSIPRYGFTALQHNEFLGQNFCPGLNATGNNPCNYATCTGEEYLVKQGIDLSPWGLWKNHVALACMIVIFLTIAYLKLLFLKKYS", "assay": "ABCG2 efflux pump inhibitors, dose response, Ig-MXP3 cells, flow cytometry (AID 1690)", "type": "functional"}, "[9]": {"target": "SWI/SNF-related matrix-associated actin-dependent regulator of chromatin subfamily A member 2 (Homo sapiens, UniProt P51531)", "sequence (P51531 whole entry)": "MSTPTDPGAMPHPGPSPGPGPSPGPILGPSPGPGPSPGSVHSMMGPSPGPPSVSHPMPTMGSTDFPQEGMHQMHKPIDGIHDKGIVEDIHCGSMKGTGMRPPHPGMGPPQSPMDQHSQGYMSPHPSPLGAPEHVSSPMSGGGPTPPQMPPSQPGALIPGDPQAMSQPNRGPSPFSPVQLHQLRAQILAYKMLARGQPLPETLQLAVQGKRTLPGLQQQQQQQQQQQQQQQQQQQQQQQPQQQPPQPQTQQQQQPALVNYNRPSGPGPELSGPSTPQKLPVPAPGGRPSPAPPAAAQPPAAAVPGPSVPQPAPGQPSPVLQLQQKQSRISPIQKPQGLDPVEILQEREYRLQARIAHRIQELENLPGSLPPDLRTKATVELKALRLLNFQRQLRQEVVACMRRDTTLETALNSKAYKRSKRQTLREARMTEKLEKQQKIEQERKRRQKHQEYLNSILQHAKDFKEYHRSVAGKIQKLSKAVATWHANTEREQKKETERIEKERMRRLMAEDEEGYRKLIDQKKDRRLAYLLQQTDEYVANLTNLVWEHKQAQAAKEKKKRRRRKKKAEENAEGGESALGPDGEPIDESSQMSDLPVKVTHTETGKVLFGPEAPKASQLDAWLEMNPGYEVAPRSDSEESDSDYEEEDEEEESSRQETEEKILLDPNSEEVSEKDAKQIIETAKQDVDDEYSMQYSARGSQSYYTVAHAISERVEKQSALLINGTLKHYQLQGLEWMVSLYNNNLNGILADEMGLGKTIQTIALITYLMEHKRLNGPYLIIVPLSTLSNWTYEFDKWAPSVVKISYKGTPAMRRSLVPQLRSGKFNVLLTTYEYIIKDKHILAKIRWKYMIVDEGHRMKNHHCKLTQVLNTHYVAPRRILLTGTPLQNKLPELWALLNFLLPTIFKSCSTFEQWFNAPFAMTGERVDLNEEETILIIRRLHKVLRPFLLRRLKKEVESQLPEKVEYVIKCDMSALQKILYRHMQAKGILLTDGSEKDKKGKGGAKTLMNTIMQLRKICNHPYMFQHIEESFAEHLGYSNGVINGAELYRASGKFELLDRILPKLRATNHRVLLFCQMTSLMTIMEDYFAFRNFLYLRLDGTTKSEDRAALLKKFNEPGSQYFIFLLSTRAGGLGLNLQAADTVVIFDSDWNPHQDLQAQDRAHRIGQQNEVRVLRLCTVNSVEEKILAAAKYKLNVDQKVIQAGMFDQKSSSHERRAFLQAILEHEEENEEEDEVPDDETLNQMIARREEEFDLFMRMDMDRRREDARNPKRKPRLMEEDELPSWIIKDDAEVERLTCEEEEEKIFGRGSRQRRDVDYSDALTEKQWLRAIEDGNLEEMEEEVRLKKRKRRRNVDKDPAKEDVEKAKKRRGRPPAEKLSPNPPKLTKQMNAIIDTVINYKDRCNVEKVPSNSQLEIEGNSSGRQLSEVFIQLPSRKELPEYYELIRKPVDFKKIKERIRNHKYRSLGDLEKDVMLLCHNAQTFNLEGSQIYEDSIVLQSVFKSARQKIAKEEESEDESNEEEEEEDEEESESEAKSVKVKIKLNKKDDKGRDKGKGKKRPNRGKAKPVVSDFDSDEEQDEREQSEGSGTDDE", "assay": "Luminescence-based cell-based high throughput dose response assay to identify activators of the function of SWI/SNF related, matrix associated, actin dependent regulator of chromatin, subfamily a, member 2 (SMARCA2, BRM).", "type": "functional"}, "[10]": {"assay": "growth suppression of beta-catenin-knockout colon cells, dose response, cell-based, HCT116, human colon tumor (AID 1045);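 further: cells exposed to compound for 60 hours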", "type": "functional"}, "[11]": {"assay": "growth suppression of PTEN-null colon cells, dose response, cell-based, HCT116 PTEN knockout (AID 1047);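 further: cells exposed to compound for 60 hours before readout; potency for loss of cell viability measured by luminescence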", "type": "functional"}, "[12]": {"assay": "Counterscreen for activators of the function of SWI/SNF related, matrix associated, actin dependent regulator of chromatin, subfamily a, member 2 (SMARCA2, BRM): Luminescence-based cell-based high throughput dose response assay to identify non-selective compounds using the VP16 reporter assay.", "type": "functional"}},
  "note": "Active and inactive are the calls of the source.",
  "data": [
    {"compound": "N#Cc1ccc(CN2CCN(C(=O)CC(NC(=O)c3ccccc3)c3ccccc3)CC2)cc1", "note": "(stereo not drawn)", "values": [
      {"measurement": "AC50", "setting": "Vero", "result": "38.1 µM (active)"}
    ]},
    {"compound": "Cc1ccc(SCC(=O)Nc2ccc(-c3nnc(-c4ccco4)o3)cc2)cc1", "values": [
      {"measurement": "IC50", "setting": "[1]", "result": "9.04 µM (active)"},
      {"measurement": "EC50", "setting": "[2]", "result": "0.629 µM (active)"},
      {"measurement": "EC50", "setting": "[3]", "result": "0.713 µM (active)"}
    ]},
    {"compound": "Cc1nnc2sc(-c3ccc(NC(=O)c4ccc(-c5ccc(Cl)cc5Cl)o4)cc3)nn12", "values": [
      {"measurement": "IC50", "setting": "[4]", "result": "> 80 µM (inactive)"},
      {"measurement": "IC50", "setting": "[5]", "result": "2.48 µM (active)"},
      {"measurement": "IC50", "setting": "[6]", "result": "0.716 µM (active)"},
      {"measurement": "IC50", "setting": "[7]", "result": "0.409 µM (active)"}
    ]},
    {"compound": "COc1ccc2cc(C(=O)OC(C)C)sc(=O)c2c1OC", "values": [
      {"measurement": "EC50", "setting": "[8]", "result": "24.4 µM (inactive)"}
    ]},
    {"compound": "OC1CCCN(Cc2ccc3ccc4cccc5ccc2c3c45)C1", "note": "(stereo not drawn)", "values": [
      {"measurement": "EC50", "setting": "[9]", "result": "> 10.1 µM (inactive)"},
      {"measurement": "EC50", "setting": "[10]", "result": "8.21 µM (active)"},
      {"measurement": "EC50", "setting": "[11]", "result": "8.96 µM (active)"},
      {"measurement": "EC50", "setting": "[12]", "result": "> 91.2 µM (inactive)"}
    ]}
  ]
}
